Experimental data taken from patent publication US8163724B2, “Glucocorticosteroids, processes for their preparation, pharmaceutical compositions containing them and their use in therapy” (AstraZeneca AB, priority 2007, dated 2012).
pIC50: −log10 of the molar value.

target: T1, recombinant human GR (Homo sapiens, UniProt P04150); assay: Human Glucocorticoid Receptor (GR) Assay (fluorescence polarization, Panvera/Invitrogen kit); assay type: binding; conditions: fluorescence polarization; GS Red tracer; 2 hours at room temperature; 100% control 10 μM Dexamethasone; read-out: Inhibition of GR binding, IC50
T1 construct: purchased Panvera/Invitrogen P2812 (kit P2893)
T1 sequence (P04150 1-777): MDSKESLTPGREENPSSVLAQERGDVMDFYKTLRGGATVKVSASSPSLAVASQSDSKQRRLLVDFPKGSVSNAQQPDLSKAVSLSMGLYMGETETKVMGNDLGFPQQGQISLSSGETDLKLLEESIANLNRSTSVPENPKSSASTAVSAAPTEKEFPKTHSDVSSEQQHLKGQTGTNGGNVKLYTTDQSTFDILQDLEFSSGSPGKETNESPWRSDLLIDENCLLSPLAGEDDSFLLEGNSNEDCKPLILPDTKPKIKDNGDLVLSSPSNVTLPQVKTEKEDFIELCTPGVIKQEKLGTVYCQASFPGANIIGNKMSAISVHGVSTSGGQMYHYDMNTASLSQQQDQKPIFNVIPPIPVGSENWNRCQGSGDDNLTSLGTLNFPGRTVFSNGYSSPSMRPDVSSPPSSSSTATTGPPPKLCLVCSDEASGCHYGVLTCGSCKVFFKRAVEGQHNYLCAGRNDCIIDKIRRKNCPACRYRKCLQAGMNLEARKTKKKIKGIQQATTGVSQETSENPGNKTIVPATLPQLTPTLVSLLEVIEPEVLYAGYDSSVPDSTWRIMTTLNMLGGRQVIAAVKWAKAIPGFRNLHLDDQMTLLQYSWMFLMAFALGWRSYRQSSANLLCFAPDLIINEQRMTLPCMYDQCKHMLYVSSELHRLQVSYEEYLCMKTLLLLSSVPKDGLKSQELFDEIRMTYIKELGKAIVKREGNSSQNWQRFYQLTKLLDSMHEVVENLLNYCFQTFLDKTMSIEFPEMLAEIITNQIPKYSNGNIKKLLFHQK
Procedure, shortened: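 Fluorescence polarization competition with recombinant GR and GS Red fluorescent ligand plus stabilizing peptide and DTT in potassium phosphate/sodium molybdate/EDTA buffer with DMSO. Incubated 2 hours at room temperature in the dark; 0% control DMSO, 100% control 10 μM dexamethasone.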

Compound	pIC50
Cn1cccc1C(=O)O[C@]1(C(=O)SCC#N)CC[C@H]2[C@@H]3CCC4=Cc5c(cnn5-c5ccc(F)cc5)C[C@]4(C)[C@H]3[C@@H](O)C[C@@]21C [Example 176, (1R,3aS,3bS,10aR,10bS,11S,12aS)-1-{[(Cyanomethyl)thio]carbonyl}-7-(4-fluorophenyl)-11-hydroxy-10a,12a-dimethyl-1,2,3,3a,3b,4,5,7,10,10a,10b,11,12,12a-tetradecahydrocyclopenta[5,6]naphtho[1,2-f]indazol-1-yl 1-methyl-1H-pyrrole-2-carboxylate]	7.96
COCC(=O)O[C@]1(C(=O)SCF)CC[C@H]2[C@@H]3C[C@H](C)C4=Cc5c(cnn5-c5ccc(F)cc5)C[C@]4(C)[C@H]3[C@@H](O)C[C@@]21C [Example 216, (1R,3aS,3bS,5S,10aR,10bS,11S,12aS)-1-{[(Fluoromethyl)sulfanyl]carbonyl}-7-(4-fluorophenyl)-11-hydroxy-5,10a,12a-trimethyl-1,2,3,3a,3b,4,5,7,10,10a,10b,11,12,12a-tetradecahydrocyclopenta[5,6]naphtho[1,2]-indazol-1-yl methoxyacetate]	8.06
C[C@]12Cc3cnn(-c4ccc(F)nc4)c3C=C1CC[C@@H]1[C@@H]2[C@@H](O)C[C@@]2(C)[C@H]1CC[C@]2(OC(=O)c1ccco1)C(=O)SCC#N [Example 166, (1R,3aS,3bS,10aR,10bS,11S,12aS)-1-{[(Cyanomethyl)sulfanyl]carbonyl}-7-(6-fluoropyridin-3-yl)-11-hydroxy-10a,12a-dimethyl-1,2,3,3a,3b,4,5,7,10,10a,10b,11,12,12a-tetradecahydrocyclopenta[5,6]naphtho[1,2-f]indazol-1-yl furan-2-carboxylate]	8.24
